Experiments:
[1] = tested on: MMP1 expression by synovial fibroblasts; experiment: Inhibition of the response of SFs to supernatant of TNFα-triggered THP1 cells, MMP1 ELISA; assay type: cell-based, human; details: dexamethasone 100 nM, SB203580 5 μM, added 1 h before trigger with 2-fold diluted SN of TNFα-activated THP1 cells, 72 h
Description: A 384-well format ELISA for measurement of MMP1 is developed. Various primary antibodies are tested, as well as various ELISA protocols. The following protocol is developed and validated to measure MMP1 levels in SF supernatant in 384 well plates: white Lumitrac 600 384 well plates (Greiner) are coated with 2 μg/ml anti-MMP1 antibody MAB1346 (Chemicon). The antibody is diluted in buffer 40 (1.21 g Tris base (Sigma), 0.58 g NaCl (Calbiochem) and 5 ml 10% NaN3 (Sigma) in 1 L milliQ water and adjusted to pH 8.5). After overnight incubation at 4° C., plates are washed with PBS (80 g NaCl, 2 g KCl (Sigma), 11.5 g Na2HPO4.7H2O and 2 g KH2PO4 in 10 L milliQ; pH 7.4) and blocked with 100 μl/well Casein buffer (2% Casein (VWR International) in PBS). Next day, casein buffer is removed from ELISA plates and replaced by 50 μl/well EC buffer (4 g casein, 2.13 g Na2HPO4 (Sigma), 2 g bovine albumin (Sigma), 0.69 g NaH2PO4.H2O (Sigma), 0.5 g CHAPS (Roche), 23.3 g NaCl, 4 ml 0,5 M EDTA pH 8 (Invitrogen), 5 ml 10% NaN3 in 1 L milliQ and adjusted to pH 7.0). 0.25 mM DTT (Sigma) is added to the thawed samples plates. After removal of the EC buffer, 20 μl of sample is transferred to the ELISA plates. […] Readout is performed on the Luminoscan Ascent Luminometer (Labsystems) with an integration time of 200 msec or with an Envision reader (Perkin Elmer). […]

[2] = tested on: MMP1 expression by synovial fibroblasts; experiment: MMP1 ELISA on SFs triggered with cytokines or supernatant of cytokine-treated THP1 cells; assay type: cell-based, human; details: each cytokine 25 ng/ml or THP1 supernatant 2-fold diluted, 72 h, 96 well plates
Description: A 384-well format ELISA for measurement of MMP1 is developed. Various primary antibodies are tested, as well as various ELISA protocols. The following protocol is developed and validated to measure MMP1 levels in SF supernatant in 384 well plates: white Lumitrac 600 384 well plates (Greiner) are coated with 2 μg/ml anti-MMP1 antibody MAB1346 (Chemicon). The antibody is diluted in buffer 40 (1.21 g Tris base (Sigma), 0.58 g NaCl (Calbiochem) and 5 ml 10% NaN3 (Sigma) in 1 L milliQ water and adjusted to pH 8.5). After overnight incubation at 4° C., plates are washed with PBS (80 g NaCl, 2 g KCl (Sigma), 11.5 g Na2HPO4.7H2O and 2 g KH2PO4 in 10 L milliQ; pH 7.4) and blocked with 100 μl/well Casein buffer (2% Casein (VWR International) in PBS). Next day, casein buffer is removed from ELISA plates and replaced by 50 μl/well EC buffer (4 g casein, 2.13 g Na2HPO4 (Sigma), 2 g bovine albumin (Sigma), 0.69 g NaH2PO4.H2O (Sigma), 0.5 g CHAPS (Roche), 23.3 g NaCl, 4 ml 0,5 M EDTA pH 8 (Invitrogen), 5 ml 10% NaN3 in 1 L milliQ and adjusted to pH 7.0). […] Readout is performed on the Luminoscan Ascent Luminometer (Labsystems) with an integration time of 200 msec or with an Envision reader (Perkin Elmer).
The increase of MMP1 expression by SFs upon treatment with cytokines relevant in the field of RA (TNFα, IL1β and OSM) or a combination thereof is monitored. […]

Row | Compound | MMP1 levels lower than control levels [1] [fold] | increase (induction) of MMP1 expression by SFs [2] [fold]
1 | C[S+]([O-])c1ccc(-c2nc(-c3ccncc3)c(-c3ccc(F)cc3)[nH]2)cc1 (stereo not drawn) [SB203580] | 3 | –
2 | C[C@@H]1C[C@H]2[C@@H]3CCC4=CC(=O)C=C[C@]4(C)[C@@]3(F)[C@@H](O)C[C@]2(C)[C@@]1(O)C(=O)CO [dexamethasone] | 4 | –
3 | TNFα | – | ~3

Reference: patent publication US7306923B2, “Methods for identification, and compounds useful for the treatment of degenerative & inflammatory diseases” (Galapagos N.V., priority 2004, dated 2007)
